From ChEMBL document CHEMBL1201862, “PubChem BioAssay data set” (2004)
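Five compound concentrations were applied to cells in 96-well plates for 48 hours; endpoints were derived by simple linear interpolation of the resulting dose-response curve. GI50: concentration for 50% inhibition of growth.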 The source made the active and inactive calls. Rule as the data show it: active = GI50 up to about 1.1 µM and inactive = higher.

How the values were obtained:
Assay in all cases: inhibition of tumour cell growth, NCI panel, 48 h
[1] = test system: HOP-62
[2] = test system: OVCAR-3
[3] = test system: SK-MEL-28
[4] = test system: HCT-15
[5] = test system: EKVX
[6] = test system: SF-295
[7] = test system: OVCAR-8
[8] = test system: CCRF-CEM
[9] = test system: IGROV-1
[10] = test system: U-251
[11] = test system: CAKI-1
[12] = test system: HT-29
[13] = test system: SW-620
[14] = test system: K562
[15] = test system: SK-MEL-2
[16] = test system: SR
[17] = test system: M14

SMILES | GI50 [1] | GI50 [2] | GI50 [3] | GI50 [4] [µM] | GI50 [5] | GI50 [6] | GI50 [7] | GI50 [8] | GI50 [9] | GI50 [10] | GI50 [11] | GI50 [12] | GI50 [13] | GI50 [14] | GI50 [15] | GI50 [16] | GI50 [17]
CSC(C1c2ccccc2N(C)C2=NC(=O)N(C)C(=O)C21Cl)S(=O)(=O)c1ccc(C)cc1 (stereo unspecified) | > 100 µM (inactive) | 18.9 µM (inactive) | 25 µM (inactive) | 40.9 | 94.4 µM (inactive) | 33.6 µM (inactive) | 21 µM (inactive) | 9.04 µM (inactive) | > 100 µM (inactive) | > 100 µM (inactive) | 24.9 µM (inactive) | 34.1 µM (inactive) | 26.6 µM (inactive) | 16.7 µM (inactive) | 33 µM (inactive) | – | –
C/C(=N/NS(=O)(=O)c1ccc(C)cc1)c1cccc[n+]1[O-] | > 100 µM (inactive) | > 100 µM (inactive) | > 100 µM (inactive) | > 100 | > 100 µM (inactive) | > 100 µM (inactive) | > 100 µM (inactive) | > 100 µM (inactive) | > 100 µM (inactive) | > 100 µM (inactive) | > 100 µM (inactive) | > 100 µM (inactive) | > 100 µM (inactive) | – | – | > 100 µM (inactive) | > 100 µM (inactive)
C/C(CC(=O)CCCC(=O)Nc1ccc(Cl)cc1Cl)=N/NC(=O)CC#N | – | > 100 µM (inactive) | > 100 µM (inactive) | > 100 | > 100 µM (inactive) | > 100 µM (inactive) | > 100 µM (inactive) | > 100 µM (inactive) | > 100 µM (inactive) | > 100 µM (inactive) | > 100 µM (inactive) | > 100 µM (inactive) | > 100 µM (inactive) | > 100 µM (inactive) | > 100 µM (inactive) | – | > 100 µM (inactive)
CCOc1ccccc1NC(=O)CSc1nnc(Cc2ccccc2)o1 | > 100 µM (inactive) | 17.1 µM (inactive) | 71.4 µM (inactive) | 17.3 | – | 98.4 µM (inactive) | 27 µM (inactive) | 33.5 µM (inactive) | 47.5 µM (inactive) | 20.2 µM (inactive) | 20.5 µM (inactive) | 35.3 µM (inactive) | 16.6 µM (inactive) | 54.8 µM (inactive) | 23.8 µM (inactive) | – | 21.9 µM (inactive)
CCCCCCCCCCCc1nnc(N)o1 | > 100 µM (inactive) | > 100 µM (inactive) | > 100 µM (inactive) | > 100 | – | > 100 µM (inactive) | > 100 µM (inactive) | – | > 100 µM (inactive) | > 100 µM (inactive) | – | > 100 µM (inactive) | > 100 µM (inactive) | 51.5 µM (inactive) | > 100 µM (inactive) | > 10 µM (inactive) | > 100 µM (inactive)
CC1CC#CCOC(=O)CCCC1=O (stereo unspecified) | > 100 µM (inactive) | > 100 µM (inactive) | > 100 µM (inactive) | – | – | > 100 µM (inactive) | > 100 µM (inactive) | > 100 µM (inactive) | > 100 µM (inactive) | > 100 µM (inactive) | – | > 100 µM (inactive) | > 100 µM (inactive) | > 100 µM (inactive) | – | – | > 100 µM (inactive)
CCn1c(=O)nc2n(-c3ccc(SC)cc3)c3ccccc3nc-2c1=O | > 100 µM (inactive) | 24.6 µM (inactive) | > 100 µM (inactive) | > 100 | > 100 µM (inactive) | > 100 µM (inactive) | > 100 µM (inactive) | > 100 µM (inactive) | > 100 µM (inactive) | > 100 µM (inactive) | 32.9 µM (inactive) | – | 17.7 µM (inactive) | > 100 µM (inactive) | > 100 µM (inactive) | – | > 100 µM (inactive)
